Earlier results as cited in patent publication US20160000720A1, “Pharmaceutical compositions comprising Tadalafil” (AUROBINDO PHARMA LIMITED, priority 2013, published 2016).

solubility in water (in words): practically insoluble in water
soluble in water in a concentration up to (according to WO 01/08687): up to 2 μg/ml
SMILES: CN1CC(=O)N2[C@H](c3ccc4c(c3)OCO4)c3[nH]c4ccccc4c3C[C@@H]2C1=O [Tadalafil, (6R,12aR)-6-(1,3-benzodioxol-5-yl)-2,3,6,7,12,12a hexa hydro-2-methylpyrazino[1′,2′:1,6]pyrido[3,4-b]indole-1,4-dione]
